Patent publication US20140309109A1, “N-Thio-anthranilamide compounds and their use as pesticides” (BASF SE, priority 2011, published 2014)

Key:
Assay type in all cases: in vivo
[1] = system: Boll Weevil (Anthonomus grandis); assay: Boll weevil insect diet microtiter test; conditions: 120 h, 5 days, eggs on sprayed insect diet, read-out: mortality (egg and larval) in comparison with untreated controls
Protocol: B.8 Boll Weevil (Anthonomus grandis)
For evaluating control of boll weevil (Anthonomus grandis) the test unit consisted of 24-well-microtiter plates containing an insect diet and 20-30 A. grandis eggs.
The compounds were formulated using a solution containing 75% v/v water and 25% v/v DMSO. Different concentrations of formulated compounds were sprayed onto the insect diet at 20 μl, using a custom built micro atomizer, at two replications.
After application, microtiter plates were incubated at about 23±1° C. and about 50±5% relative humidity for 5 days. Egg and larval mortality was then visually assessed.

[2] = system: Diamond Back Moth (Plutella xylostella); assay: Diamond back moth cabbage leaf dip test; conditions: foliar, 72 hours after treatment, 3rd instar larvae on dipped cabbage leaves, read-out: mortality in comparison with untreated controls
Protocol: B.2 Diamond Back Moth (Plutella xylostella)
The active compound is dissolved at the desired concentration in a mixture of 1:1 (vol:vol) distilled water:aceteone. Surfactant (Alkamuls® EL 620) is added at a rate of 0.1% (vol/vol).The test solution is prepared at the day of use.
Leaves of cabbage were dipped in test solution and air-dried. Treated leaves were placed in petri dish eslined with moist filter paper and inoculated with ten 3rd instar larvae. Mortality was recorded 72 hours after treatment. Feeding damages were also recorded using a scale of 0-100%.

[3] = system: Cowpea Aphid (Aphis craccivora); assay: Cowpea aphid spray test on potted cowpea plants; conditions: assessed after 72 hours, sprayed cowpea plants, read-out: mortality in comparison with untreated controls
Protocol: B.1 Cowpea Aphid (Aphis craccivora)
The active compound is dissolved at the desired concentration in a mixture of 1:1 (vol:vol) distilled water:acetone. Surfactant (Alkamuls® EL 620) is added at a rate of 0.1% (vol/vol). The test solution is prepared at the day of use.
Potted cowpea plants were colonized with approximately 50-100 aphids of various stages by manually transferring a leaf tissue cut from infested plant 24 hours before application. Plants were sprayed after the pest population has been recorded. Treated plants are maintained on light carts at about 28° C. Percent mortality was assessed after 72 hours

[4] = system: Tobacco Budworm (Heliothis virescens); assay: Tobacco budworm I (B.7a) cotton plant spray test; conditions: 96 h, 4 days after treatment, larvae on sprayed cotton plants (B.7a), read-out: mortality in comparison with untreated controls
Protocol: B.7a Tobacco Budworm (Heliothis virescens) I
(§1) The active compounds were formulated in cyclohexanone as a 10,000 ppm solution supplied in tubes. The tubes were inserted into an automated electrostatic sprayer equipped with an atomizing nozzle and they served as stock solutions for which lower dilutions were made in 50% acetone:50% water (v/v). A nonionic surfactant (Kinetic®) was included in the solution at a volume of 0.01% (v/v).
(§2) Cotton plants were grown 2 plants to a pot and selected for treatment at the cotyledon stage. Test solutions were sprayed onto the foliage by an automated electrostatic plant sprayer equipped with an atomizing spray nozzle. The plants were dried in the sprayer fume hood and then removed from the sprayer. Each pot was placed into perforated plastic bags with a zip closure. About 10 to 11 budworm larvae were placed into the bag and the bags zipped closed. Test plants were maintained in a growth room at about 25° C. and about 20-40% relative humidity for 4 days, avoiding direct exposure to fluorescent light (24 hour photoperiod) to prevent trapping of heat inside the bags. Mortality and reduced feeding were assessed 4 days after treatment, compared to untreated control plants.

[5] = system: Vetch Aphid (Megoura viciae); assay: Vetch aphid broad bean leaf disk microtiter test; conditions: foliar, 120 h, 5 days, adult aphids on sprayed broad bean leaf disks, read-out: mortality in comparison with untreated controls
Protocol: B.6 Vetch Aphid (Megoura viciae)
For evaluating control of vetch aphid (Megoura viciae) through contact or systemic means the test unit consisted of 24-well-microtiter plates containing broad bean leaf disks.
The compounds were formulated using a solution containing 75% v/v water and 25% v/v DMSO. Different concentrations of formulated compounds were sprayed onto the leaf disks at 2.5 μl, using a custom built micro atomizer, at two replications.
After application, the leaf disks were air-dried and 5-8 adult aphids placed on the leaf disks inside the microtiter plate wells. The aphids were then allowed to suck on the treated leaf disks and incubated at about 23±1° C. and about 50±5% relative humidity for 5 days. Aphid mortality and fecundity was then visually assessed.

[6] = system: Tobacco Budworm (Heliothis virescens); assay: Tobacco budworm I (B.7b) cotton plant spray test; conditions: 96 h, 4 days after treatment, larvae on sprayed cotton plants (B.7b), read-out: mortality in comparison with untreated controls
Protocol: B.7b Tobacco Budworm (Heliothis virescens) I
as §1, §2

[7] = system: Orchid Thrips (Dichromothrips corbetti); assay: Orchid thrips floral-immersion test; conditions: 72 hours after treatment, adult thrips on dipped orchid flowers, read-out: mortality in comparison with untreated controls
Protocol: B.3 Orchid Thrips (Dichromothrips corbetti)
Dichromothrips corbetti adults used for bioassay were obtained from a colony maintained continuously under laboratory conditions. For testing purposes, the test compound is diluted in a 1:1 mixture of acetone:water (vol:vol), plus 0.01% vol/vol Alkamuls® EL 620 surfactant.
Thrips potency of each compound was evaluated by using a floral-immersion technique. Plastic petri dishes were used as test arenas. All petals of individual, intact orchid flowers were dipped into treatment solution and allowed to dry. Treated flowers were placed into individual petri dishes along with about 20 adult thrips. The petri dishes were then covered with lids. All test arenas were held under continuous light and a temperature of about 28° C. for duration of the assay. After 3 days, the numbers of live thrips were counted on each flower, and along inner walls of each petri dish. The percent mortality was recorded 72 hours after treatment.

[8] = system: Colorado Potato Beetle (Leptinotarsa decemlineata); assay: Colorado potato beetle eggplant foliage spray test; conditions: foliar, 96 h, 4 days after treatment, larvae on sprayed eggplant foliage, read-out: mortality in comparison with untreated controls
Protocol: B.9 Colorado Potato Beetle (Leptinotarsa decemlineata)
as §1
Eggplants were grown 2 plants to a pot and were selected for treatment at the 1st true leaf stage. Test solutions were sprayed onto the foliage by an automated electrostatic plant sprayer equipped with an atomizing spray nozzle. The plants were dried in the sprayer fume hood and then removed from the sprayer. The treated foliage was then cut and removed from the pot and placed in a Petri dish lined with moistened filter pa-per. Five beetle larvae were introduced into each Petri dish and the dish was covered by a Petri dish lid. Petri dishes were maintained in a growth room at about 25° C. and about 20-40% relative humidity for 4 days, avoiding direct exposure to fluorescent light (24 hour photoperiod) to prevent trapping of heat inside the dishes. Mortality and reduced feeding were assessed 4 days after treatment, compared to untreated control plants.

[9] = system: Southern Armyworm (Spodoptera eridania); assay: Southern armyworm lima bean foliar spray test; conditions: 96 h, 4 days after treatment, larvae on sprayed lima bean plants, read-out: mortality in comparison with untreated controls
Protocol: B.5 Southern Armyworm (Spodoptera eridania)
as §1
Lima bean plants (variety Sieva) were grown 2 plants to a pot and selected for treatment at the 1st true leaf stage. Test solutions were sprayed onto the foliage by an automated electrostatic plant sprayer equipped with an atomizing spray nozzle. The plants were dried in the sprayer fume hood and then removed from the sprayer. Each pot was placed into perforated plastic bags with a zip closure. About 10 to 11 armyworm larvae were placed into the bag and the bags zipped closed. Test plants were maintained in a growth room at about 25° C. and about 20-40% relative humidity for 4 days, avoiding direct exposure to fluorescent light (24 hour photoperiod) to prevent trapping of heat inside the bags. Mortality and reduced feeding were assessed 4 days after treatment, compared to untreated control plants.

CCS(CC1CC1)=NC(=O)c1cc(Cl)cc(C)c1NC(=O)c1cc(C(F)(F)F)nn1-c1ncccc1Cl (stereo not drawn) [Compound 1, 2-(3-chloro-2-pyridyl)-N-[2-methyl-4-chloro-6-[(cyclopropylmethyl-ethyl-λ^4-sulfanylidene)carbamoyl]phenyl]-5-(trifluoromethyl)pyrazole-3-carboxamide]
≥ 75%: mortality at 2500 ppm [1] | mortality at 300 ppm [2] | mortality at 300 ppm [3] | mortality at 2500 ppm [4] | mortality at 2500 ppm [5] | mortality at 10 ppm [6] | mortality at 300 ppm [7] | mortality at 10 ppm [8] | mortality at 1 ppm [9]
